Test [1] has as its system thrombin-binding aptamer (TBA) (DNA, G4) GGTTGGTGTGGTTGG
In words: fluorescence of dye-aptamer complex. The conditions noted are these: 300 mM NaCl, 5 mM MgCl2, 10 mM KCl; 20 mM Tris-Cl pH 7.5, 25 °C; dye 25 nM, aptamer 10 nM.

Test [2] has as its system theophylline aptamer (RNA, aptamer) GGUGAUACCAGCAUCGUCUUGAUGCCCUUGGCAGCACC
As to the kind of experiment: fluorescence of dye-aptamer complex. The conditions noted are these: 140 mM NaCl, 5 mM KCl, 5 mM MgCl2; 20 mM Tris-Cl pH 7.5, 25 °C; dye 25 nM, aptamer 10 nM.

Test [3] has as its system ATP aptamer (DNA, aptamer) ATAGCGGAGGAAGGATACCTGGGGGAGTATAT
In words: fluorescence change of staining dye. The conditions noted are these: 300 mM NaCl, 5 mM MgCl2, 10 mM KCl, 20 mM Tris-Cl pH 7.5, 25 °C, Hoechst 33258 25 nM as indicator, aptamer 10 nM.

For test [4], the system named is theophylline aptamer (RNA, aptamer) GGUGAUACCAGCAUCGUCUUGAUGCCCUUGGCAGCACC
In words: fluorescence change of staining dye. The following applies: 140 mM NaCl, 5 mM KCl, 5 mM MgCl2, 20 mM Tris-Cl pH 7.5, 25 °C, aptamer 10 nM.

Test [5] deals with ATP aptamer (DNA, aptamer) ATAGCGGAGGAAGGATACCTGGGGGAGTATAT
In words: fluorescence of dye-aptamer complex. The following applies: 300 mM NaCl, 5 mM MgCl2, 10 mM KCl; 20 mM Tris-Cl pH 7.5, 25 °C; dye 25 nM, aptamer 10 nM.

`CN1C(=Cc2cc[n+](C)c3ccccc23)Sc2ccccc21`: the binding result in test [1] and in test [2] was “yes” throughout.

`Nc1nc2c(ncn2[C@@H]2O[C@H](COP(=O)(O)OP(=O)(O)OP(=O)(O)O)[C@@H](O)[C@H]2O)c(=O)[nH]1`: the binding result in test [3] (~5% change, within error) was “no”. In the case of `Cn1c(=O)c2[nH]cnc2n(C)c1=O`, the binding entry in test [4] (TO or SYBR Green 25 nM as indicator) was “yes”. As to `Cn1c(=O)c2c(ncn2C)n(C)c1=O`, the binding entry in test [4] (TO 25 nM as indicator, huge excess of caffeine) is given as “no”. `CCCN(CCCN(C)C)c1cc(C=C2Sc3ccccc3N2C)c2ccccc2[n+]1-c1ccccc1`: the binding result in test [1] and in test [2] was “yes” each time. Consider `Nc1ncnc2c1ncn2[C@@H]1O[C@H](COP(=O)(O)OP(=O)(O)OP(=O)(O)O)[C@@H](O)[C@H]1O`, for which the binding entry in test [3] is “yes”.

Regarding `C[n+]1c(C=C2C=CN(CCC[N+](C)(C)CCC[N+](C)(C)CCCN3C=CC(=Cc4oc5ccccc5[n+]4C)c4ccccc43)c3ccccc32)oc2ccccc21`, the binding result in test [5] and in test [1] was “yes” in each case. As to `CN1CCN(c2ccc3nc(-c4ccc5nc(-c6ccc(O)cc6)[nH]c5c4)[nH]c3c2)CC1`, the binding result in test [5] is reported as “yes”.

Source of the values: publication PMC3474971 (2012).
